Experimental data reported in ChEMBL document CHEMBL3217443, “The Discovery of Novel 10,11-Dihydro-5H-dibenz[b,f]azepine SIRT2 Inhibitors” (Medchemcomm, 2012).
The source made the active and inactive calls. The calls are words filed in the database; no cut-off is given here.

Key:
[1] = molecular target: T1, NAD-dependent protein deacetylase sirtuin-1 (Homo sapiens) (UniProt Q96EB6); test: Inhibition of recombinant human N-tagged GST-SIRT1 fusion protein using fluorescent ZMAL as substrate at 50 uM after 4 hrs by homogeneous fluorescent deacetylase assay
T1 sequence (whole entry): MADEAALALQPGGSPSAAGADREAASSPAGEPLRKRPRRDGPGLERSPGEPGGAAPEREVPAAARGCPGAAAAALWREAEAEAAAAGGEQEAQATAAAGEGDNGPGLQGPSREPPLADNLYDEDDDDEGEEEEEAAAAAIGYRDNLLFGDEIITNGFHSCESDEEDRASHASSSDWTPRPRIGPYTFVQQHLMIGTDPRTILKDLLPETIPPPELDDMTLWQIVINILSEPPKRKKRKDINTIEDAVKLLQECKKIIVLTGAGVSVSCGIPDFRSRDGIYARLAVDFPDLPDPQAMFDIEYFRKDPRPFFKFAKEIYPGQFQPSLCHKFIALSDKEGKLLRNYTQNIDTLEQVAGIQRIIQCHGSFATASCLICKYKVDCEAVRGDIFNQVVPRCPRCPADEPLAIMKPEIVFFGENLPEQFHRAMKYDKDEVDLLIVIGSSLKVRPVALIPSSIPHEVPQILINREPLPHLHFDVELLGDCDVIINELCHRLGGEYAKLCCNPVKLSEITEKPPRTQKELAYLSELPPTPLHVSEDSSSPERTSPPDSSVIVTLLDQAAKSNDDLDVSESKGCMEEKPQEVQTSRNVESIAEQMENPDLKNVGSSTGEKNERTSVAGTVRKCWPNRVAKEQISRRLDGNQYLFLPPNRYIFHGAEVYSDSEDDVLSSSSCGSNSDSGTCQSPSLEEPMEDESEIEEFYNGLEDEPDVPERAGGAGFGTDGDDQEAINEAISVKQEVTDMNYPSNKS

[2] = molecular target: T2, NAD-dependent protein deacetylase sirtuin-2 (Homo sapiens) (UniProt Q8IXJ6); test: Inhibition of recombinant human full length SIRT2 using fluorescent ZMAL as substrate at 50 uM after 4 hrs by homogeneous fluorescent deacetylase assay
T2 sequence (whole entry): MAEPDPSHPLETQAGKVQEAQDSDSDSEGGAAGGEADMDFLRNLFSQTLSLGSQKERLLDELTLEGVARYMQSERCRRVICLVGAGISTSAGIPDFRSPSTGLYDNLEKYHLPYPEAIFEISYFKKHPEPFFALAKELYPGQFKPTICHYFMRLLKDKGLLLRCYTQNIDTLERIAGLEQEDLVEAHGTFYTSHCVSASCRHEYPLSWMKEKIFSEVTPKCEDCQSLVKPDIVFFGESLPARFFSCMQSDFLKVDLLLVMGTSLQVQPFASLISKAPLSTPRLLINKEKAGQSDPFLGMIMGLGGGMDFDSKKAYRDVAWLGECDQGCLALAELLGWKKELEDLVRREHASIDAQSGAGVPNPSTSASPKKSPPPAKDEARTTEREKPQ

[3] = molecular target: T3, NAD-dependent protein deacetylase sirtuin-2 (Homo sapiens, UniProt Q8IXJ6); test: Inhibition of recombinant human full length SIRT2 using fluorescent ZMAL as substrate after 4 hrs by homogeneous fluorescent deacetylase assay
T3 sequence (Q8IXJ6 whole entry): T2 sequence (whole entry)

[4] = molecular target: T1, NAD-dependent protein deacetylase sirtuin-1 (Homo sapiens); test: Inhibition of SIRT1 in human MCF7 cells assessed as increase in acetylation of p53 at lys 382 at 50 uM after 24 hrs by Western blot analysis; assay type: cell-based
[5] = test system: MCF7; test: Cell cycle arrest in human MCF7 cells assessed as accumulation at G1 phase at 50 uM after 24 hrs by flow cytometry (reference value: 43.5 %); assay type: functional
[6] = test system: MCF7; test: Cell cycle arrest in human MCF7 cells assessed as accumulation at S phase at 50 uM after 24 hrs by flow cytometry (reference value: 30.8 %); assay type: functional
[7] = test system: MCF7; test: Cell cycle arrest in human MCF7 cells assessed as accumulation at sub-G1 phase at 50 uM after 24 hrs by flow cytometry (reference value: 0.3 %); assay type: functional
[8] = test system: MCF7; test: Cell cycle arrest in human MCF7 cells assessed as accumulation at G2-M phase at 50 uM after 24 hrs by flow cytometry (reference value: 22.6 %); assay type: functional
[9] = molecular target: T1, NAD-dependent protein deacetylase sirtuin-1 (Homo sapiens); test: Inhibition of SIRT1 in human MCF7 cells assessed as increase in acetylation of H3-K9 up to 50 uM after 24 hrs by Western blot analysis; assay type: cell-based
[10] = test system: MCF7; test: Antiproliferative activity against human MCF7 cells at 30 uM after 24 to 72 hrs; assay type: functional
[11] = molecular target: T2, NAD-dependent protein deacetylase sirtuin-2 (Homo sapiens); test: Inhibition of SIRT2 in human MCF7 cells assessed as increase in hyperacetylation of alpha-tubulin up to 50 uM after 24 hrs by Western blot analysis; assay type: cell-based
[12] = molecular target: T4, NAD-dependent protein deacetylase sirtuin-1 (Homo sapiens, UniProt Q96EB6)
T4 sequence (Q96EB6 whole entry): T1 sequence (whole entry)
Description: Inhibition of recombinant human N-tagged GST-SIRT1 fusion protein using fluorescent ZMAL as substrate after 4 hrs by homogeneous fluorescent deacetylase assay

[13] = molecular target: T1, NAD-dependent protein deacetylase sirtuin-1 (Homo sapiens); test: Inhibition of recombinant human N-tagged GST-SIRT1 fusion protein using fluorescent ZMAL as substrate at 100 uM after 4 hrs by homogeneous fluorescent deacetylase assay
[14] = molecular target: T1, NAD-dependent protein deacetylase sirtuin-1 (Homo sapiens); test: Inhibition of recombinant human N-tagged GST-SIRT1 fusion protein using fluorescent ZMAL as substrate at 500 uM after 4 hrs by homogeneous fluorescent deacetylase assay
[15] = species on record: Homo sapiens; test: Selectivity ratio of IC50 for recombinant human N-tagged GST-SIRT1 fusion protein to IC50 for recombinant human full length SIRT2
[16] = molecular target: T2, NAD-dependent protein deacetylase sirtuin-2 (Homo sapiens); test: Inhibition of SIRT2 in human MCF7 cells assessed as decrease in phosphorylation of pRB at Ser807/Ser811 at 50 uM after 24 hrs by Western blot analysis; assay type: cell-based

Work on `NC(=O)c1ccc2c(c1)CCc1cc(C(N)=O)ccc1N2` yielded an inhibition [1] of under 25% and an inhibition [2] of under 25%.

With `CC(C)(C)NC(=O)c1ccc2c(c1)CCc1ccccc1N2` the IC50 [3] was 100 µM and the inhibition [1] was under 25%.

With `NC(=O)c1ccc2c(c1)CCc1ccccc1N2` the inhibition [1] was under 25% and the inhibition [2] was under 25%.

`OCc1ccc2c(c1)CCc1cc(CO)ccc1N2` gave an inhibition [1] of under 25% and an inhibition [2] of under 25%.

With `O=C(Nc1cccc(Br)c1)c1cccc(S(=O)(=O)N2CCCCCC2)c1` the inhibition [4] was “Active”, the Activity [5] was 54.3% and the Activity [6] was 20%. It also gave an Activity [7] of 0.4%, an inhibition [1] of under 25% and an Activity [8] of 25.3%. The inhibition [9] was “inactive”.

`NC(=O)c1ccc2c(c1)CCc1cc(N)ccc1N2` showed an inhibition [1] of under 25% and an inhibition [2] of under 25%.

For `CC(C(=O)Nc1cccc(/N=C/c2c(O)ccc3ccccc23)c1)c1ccccc1` (stereo not drawn) [SALERMIDE], the inhibition [4] was “Active”, the Activity [10] was “Active” and the Activity [5] was 56.1%. The IC50 [3] was 45 µM, the inhibition [11] was “Active” and the Activity [6] was 16.4%. The Activity [7] was 1.1%, the Activity [8] was 26.4% and the IC50 [12] was 76 µM. The inhibition [9] was “inactive”.

`NC(=O)c1cccc2c1Nc1ccccc1CC2` was tested, and the inhibition [1] was under 25% and the inhibition [2] was under 25%.

`CN1c2ccc(C(N)=O)cc2CCc2cc([N+](=O)[O-])ccc21` gave an IC50 [3] of 77.5 µM and an inhibition [13] of 23%.

For `NC(=O)C1CCCc2c1[nH]c1ccc(Cl)cc21` (stereo not drawn), the Activity [10] was 50%, the Activity [5] was 73.8% and the Activity [6] was 10.3%. The Activity [7] was 1.2% and the Activity [8] was 15.7%.

In the case of `N#Cc1ccc2c(c1)CCc1cc([N+](=O)[O-])ccc1N2`, the inhibition [1] is reported as under 25% and the inhibition [2] is reported as under 25%.

Compound `NC(=O)c1ccc2c(c1)CCc1cccc([N+](=O)[O-])c1N2` has an inhibition [1] of under 25% and an inhibition [2] of under 25%.

Compound `c1ccc2c(c1)CCc1ccccc1N2` has an inhibition [1] of under 25% and an inhibition [2] of under 25%.

`N#Cc1ccc2c(c1)CCc1cc(C(N)=O)ccc1N2` was tested, and the inhibition [1] was under 25% and the inhibition [2] was under 25%.

Compound `OCc1ccc2c(c1)CCc1cccc(CO)c1N2` has an inhibition [1] of under 25% and an inhibition [2] of under 25%.

Compound `NC(=O)c1ccc2c(c1)CCc1cccc(CO)c1N2` has an inhibition [1] of under 25% and an inhibition [2] of under 25%.

`NC(=O)N1c2ccccc2CCc2ccccc21` gave an inhibition [1] of under 25% and an inhibition [2] of under 25%.

Compound `N#Cc1ccc2c(c1)CCc1ccccc1N2` has an inhibition [1] of under 25% and an inhibition [2] of under 25%.

In the case of `NC(=O)c1ccc2c(c1)CCc1cc([N+](=O)[O-])ccc1N2`, the inhibition [14] is reported as 11%, the inhibition [4] is reported as “inactive” and the Activity [10] is reported as “Active”. For the same compound, the Activity [5] was 42.2%, the IC50 [3] was 17.6 µM and the inhibition [11] was “Active”. The Ratio IC50 [15] was over 30, the Activity [6] was 18% and the Activity [7] was 0.9%. For the same compound, the Activity [8] was 38.9%, the inhibition [16] was “Active” and the inhibition [13] was 1%. For the same compound, the inhibition [9] was “inactive”.

With `O=[N+]([O-])c1ccc2c(c1)CCc1ccccc1N2` the inhibition [1] was under 25% and the inhibition [2] was under 25%.

`O=[N+]([O-])c1ccc2c(c1)Nc1ccccc1CC2` was tested, and the inhibition [1] was under 25% and the inhibition [2] was under 25%.

With `NC(=O)c1ccc2c(c1)CCc1cc(Cl)ccc1N2` the inhibition [1] was under 25% and the inhibition [2] was under 25%.

`N#Cc1ccc2c(c1)CCc1cc(C#N)ccc1N2` was tested, and the inhibition [1] was under 25% and the inhibition [2] was under 25%.

`CC(NC(=O)c1ccccc1/N=C/c1c(O)ccc2ccccc12)c1ccccc1` (stereo not drawn) [SIRTINOL] was tested, and the inhibition [4] was “Active”, the Activity [10] was “Active” and the Activity [5] was 71.5%. For the same compound, the inhibition [11] was “inactive”, the Activity [6] was 9.7% and the Activity [7] was 0.7%. The Activity [8] was 18% and the inhibition [9] was “inactive”.

`CC(C)(C)NS(=O)(=O)c1ccc2c(c1)Nc1ccccc1CC2` showed an IC50 [3] of 29.8 µM and an inhibition [13] of 12%.
